In data set [1] the test system is Dirofilaria immitis microfilariae. The experiment in a line: In vitro assay 3: Dirofilaria immitis microfilariae (DIROIM L1), motility. The following applies: 72 h, read-out: EC50 (reduction of motility), 72 h incubation.
The target of a further data set is C. elegans Slo-1a (Caenorhabditis elegans, UniProt Q95V25). The following applies: pE50 (negative decadic logarithm of EC50), CHO cells expressing C. elegans Slo-1a, voltage sensitive dye.
For data set [2], the system named is Nippostrongylus brasiliensis. The experiment in a line: In vitro assay 2: Nippostrongylus brasiliensis (NIPOBR), acetylcholine esterase readout. The following applies: read-out: activity (reduction of AChE compared to negative control); for inhibition at 10 µg/mL: 10 μg/ml; for inhibition at 1 µg/mL: 1 μg/ml. As to the method:
In Vitro Assay 2: Nippostrongylus brasiliensis (NIPOBR)
Adult Nippostrongylus brasiliensis were washed with saline buffer containing 100 U/ml penicillin, 0.1 mg/ml streptomycin and 2.5 μg/ml amphotericin B. Test compounds were dissolved in DMSO and worms were incubated in medium in a final concentration of 10 μg/ml (10 ppm) respectively 1 μg/ml (1 ppm). An aliquot of the medium was used to determine the acetylcholine esterase activity in comparison to a negative control. The principle of measuring acetylcholine esterase as readout for anthelmintic activity was described in Rapson et al (1986) and Rapson et al (1987).

The next data set deals with Haemonchus contortus. The following applies: 120 h, read-out: activity (larval mortality).

Experimental findings from patent publication US10889573B2, “Anthelmintic quinoline-3-carboxamide derivatives” (Bayer Animal Health GMBH, priority 2016, dated 2021) are described below.

Structures are written as SMILES. pEC50: −log10 of the molar value.

C. elegans Slo-1a, sequence (Q95V25 whole entry): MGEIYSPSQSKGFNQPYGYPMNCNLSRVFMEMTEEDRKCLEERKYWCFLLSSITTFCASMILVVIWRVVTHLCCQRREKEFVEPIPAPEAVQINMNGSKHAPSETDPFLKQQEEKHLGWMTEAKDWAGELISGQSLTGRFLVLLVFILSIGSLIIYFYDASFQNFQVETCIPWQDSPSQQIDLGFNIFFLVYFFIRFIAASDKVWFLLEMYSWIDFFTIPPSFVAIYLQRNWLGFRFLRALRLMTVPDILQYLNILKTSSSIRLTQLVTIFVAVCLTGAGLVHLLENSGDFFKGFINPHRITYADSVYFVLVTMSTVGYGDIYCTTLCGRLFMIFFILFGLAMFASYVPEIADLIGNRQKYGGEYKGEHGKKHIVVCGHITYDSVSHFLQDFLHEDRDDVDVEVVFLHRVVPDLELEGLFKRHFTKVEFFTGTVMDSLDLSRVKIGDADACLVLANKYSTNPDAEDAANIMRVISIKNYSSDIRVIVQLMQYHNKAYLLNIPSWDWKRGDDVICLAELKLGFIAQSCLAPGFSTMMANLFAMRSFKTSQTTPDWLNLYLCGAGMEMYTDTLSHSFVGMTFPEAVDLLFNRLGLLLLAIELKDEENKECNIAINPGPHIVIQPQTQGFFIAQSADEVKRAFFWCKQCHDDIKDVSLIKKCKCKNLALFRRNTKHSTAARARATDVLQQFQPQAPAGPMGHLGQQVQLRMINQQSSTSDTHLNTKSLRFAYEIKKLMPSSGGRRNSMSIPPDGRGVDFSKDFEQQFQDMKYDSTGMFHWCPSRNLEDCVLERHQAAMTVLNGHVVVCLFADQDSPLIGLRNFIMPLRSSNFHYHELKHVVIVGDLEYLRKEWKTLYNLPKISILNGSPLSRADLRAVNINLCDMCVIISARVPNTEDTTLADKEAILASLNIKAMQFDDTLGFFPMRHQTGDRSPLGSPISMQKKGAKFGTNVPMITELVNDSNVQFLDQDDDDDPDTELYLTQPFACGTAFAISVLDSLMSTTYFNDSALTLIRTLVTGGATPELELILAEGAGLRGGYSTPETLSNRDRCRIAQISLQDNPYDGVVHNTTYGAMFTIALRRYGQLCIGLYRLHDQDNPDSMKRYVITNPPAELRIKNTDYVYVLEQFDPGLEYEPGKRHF
Experimental for Cooperia curticei: In Vitro Assay 6: Cooperia curticei (COOPCU L3)
Solvent: dimethyl sulfoxide
Approximately 40 nematode larvae (Cooperia curticei) are transferred into a test tube containing the compound solution.
After 5 days percentage of larval mortality is recorded. 100% efficacy means all larvae are killed; 0% efficacy means no larvae are killed.
Experimental for Haemonchus contortus: In Vitro Assay 7: Haemonchus contortus (HAEMCO L3)
Solvent: dimethyl sulfoxide
Approximately 40 larvae of the red stomach worm (Haemonchus contortus) are transferred into a test tube containing compound solution.
After 5 days the percentage of larval mortality is recorded. 100% efficacy means all larvae are killed, 0% efficacy means no larvae are killed.

One may read the EC50 as the concentration that produces a half-maximal response. Broadly, the pEC50 is the negative decadic logarithm of the EC50, by convention in mol/L. A low value points to a large EC50. For `COc1ccc(F)cc1-c1cccc2c(N3CCC(O)C3)c(C(=O)N[C@H]3CCOc4ccccc43)cnc12` (mixture of isomers) [Example 270], the EC50 in data set [1] was below 0.1 µg/mL. Besides, on C. elegans Slo-1a, the pEC50 is 7.50 to 8.50.

As to `O=C(N[C@H]1CCOc2ccccc21)c1cnc2c(-c3cc(Cl)cc(Cl)c3)cccc2c1C1CCNC1` (mixture of isomers) [Example 519], in data set [1], the EC50 was below 10 µg/mL. Besides, the pEC50 on C. elegans Slo-1a is 6.50 to 7.50.

`O=C(N[C@H]1CCOc2ccccc21)c1cnc2c(-c3cc(Cl)cc(Cl)c3)cccc2c1Cl` [Example 4, 4-chloro-8-(3,5-dichlorophenyl)-N-[(4S)-3,4-dihydro-2H-chromen-4-yl]quinoline-3-carboxamide]: the EC50 in data set [1] was below 0.1 µg/mL. The compound further had a pEC50 at C. elegans Slo-1a of 7.50 to 8.50.

With `O=C(N[C@H]1CCc2ccccc21)c1cnc2c(-c3cccc(Cl)c3)cccc2c1Cl` [Example 6], in data set [1], the EC50 is below 0.1 µg/mL. The compound further had a pEC50 on C. elegans Slo-1a of 7.50 to 8.50.

As to `CN(C)c1c(C(=O)N[C@H]2CCOc3ccccc32)cnc2c(-c3ccc4ncn(C)c4c3)cccc12` [Example 71], the inhibition at 10 µg/mL in data set [2] is above 80%. For the same compound, the EC50 in data set [1] was below 1 µg/mL. On C. elegans Slo-1a, this compound gave a pEC50 of 6.50 to 7.50.

On to `O=C(N[C@H]1CCc2ccccc21)c1cnc2c(-c3cc(Cl)cc(Cl)c3)cccc2c1N1CC(O)C1` [Example 102], for which the EC50 in data set [1] was below 1 µg/mL. Also, the pEC50 on C. elegans Slo-1a is 7.50 to 8.50.

Consider `CC1CN(c2c(C(=O)N[C@H]3CCc4ccccc43)cnc3c(-c4cc(Cl)cc(Cl)c4)cccc23)C1` [Example 120], for which, in data set [1], the EC50 is below 10 µg/mL. This compound also showed a pEC50 on C. elegans Slo-1a of 6.50 to 7.50.

The term mortality denotes the percentage killed. For the compound `CN(C)c1c(C(=O)N[C@H]2CCOc3ccccc32)cnc2c(-c3ccc(F)cc3Cl)cc(F)cc12` [Example 180], in data set [1], the EC50 is below 0.1 µg/mL. Besides, the mortality at 20 ppm in the data set on Haemonchus contortus came out at 80%. Moreover, on C. elegans Slo-1a, the pEC50 is 7.50 to 8.50.

Regarding `O=C(N[C@H]1CCOc2ccccc21)c1cnc2c(-c3ccc(F)c(Cl)c3)cccc2c1N1CCOCC1` [Example 190], in the data set with Cooperia curticei (0.8 ppm, after 5 days), the “activity (larval mortality)” value was found to be 80%.

As for `COC(=O)c1cc(-c2cccc3c(N4CCOCC4)c(C(=O)N[C@H]4CCOc5ccccc54)cnc23)c2ocnc2c1` [Example 216], in data set [1], the 50% effective concentration (EC50) is below 1 µg/mL. The compound further gave a pEC50 at C. elegans Slo-1a of 6.50 to 7.50.

For the compound `COc1cc(F)c(-c2cccc3c(N4CCOCC4)c(C(=O)N[C@H]4CCOc5ccccc54)cnc23)cc1F` [Example 230], in data set [1], the EC50 is below 1 µg/mL. This compound showed a pEC50 at C. elegans Slo-1a of 6.50 to 7.50.

On to `CC(C)(C)OC(=O)[C@@H]1CCCN1c1c(C(=O)N[C@H]2CCc3ccccc32)cnc2c(-c3cc(Cl)cc(Cl)c3)cccc12` [Example 241], for which the EC50 in data set [1] was below 1 µg/mL. Besides, the pEC50 on C. elegans Slo-1a is 6.50 to 7.50.

For the compound `CC(C)(C)OC(=O)[C@@H]1CCCN1c1c(C(=O)N[C@H]2CCOc3ccccc32)cnc2c(-c3cc(Cl)cc(Cl)c3)cccc12` [Example 242], the EC50 in data set [1] is below 1 µg/mL. This compound had a pEC50 on C. elegans Slo-1a of 6.50 to 7.50.

In turn, `CC(C)(C)OC(=O)[C@@H]1CCCN1c1c(C(=O)N[C@H]2CCOc3ccccc32)cnc2c(-c3cc(Cl)cc(Cl)c3)cccc12` [Example 243, tert-butyl 1-{8-(3,5-dichlorophenyl)-3-[(4S)-3,4-dihydro-2H-chromen-4-ylcarbamoyl]quinolin-4-yl}-L-prolinate] showed a pEC50 on C. elegans Slo-1a of 5.30 to 6.50.

Consider `O=C(N[C@H]1CCOc2ccccc21)c1cnc2c(-c3cc(Cl)cc(Cl)c3)cccc2c1N1CCC[C@@H]1CO` [Example 287], for which the inhibition at 1 µg/mL in data set [2] is above 80%. Also, the EC50 in data set [1] is below 10 µg/mL. In addition, at C. elegans Slo-1a, the pEC50 is 7.50 to 8.50.

For `COCCNc1c(C(=O)N[C@H]2CCc3ccccc32)cnc2c(-c3cc(Cl)cc(Cl)c3)cccc12` [Example 298], the mortality at 20 ppm with Cooperia curticei (Cooperia curticei, 120 h, read-out: activity (larval mortality)) worked out at 80%. Further, the pEC50 on C. elegans Slo-1a was above 8.50.

On to `O=C(N[C@H]1CCc2ccccc21)c1cnc2c(-c3cc(Cl)cc(Cl)c3)cccc2c1N1CCC[C@@H]1C(=O)O` [Example 299], for which the EC50 in data set [1] is below 1 µg/mL. The same compound had a pEC50 on C. elegans Slo-1a of 6.50 to 7.50.

For `O=C(NC1CCOc2ccccc21)c1cnc2c(-c3cc(Cl)cc(Cl)c3)cccc2c1N1CC2CCC(C1)O2` (stereo not drawn) [Example 302], the inhibition at 1 µg/mL in data set [2] is above 80%. For the same compound, the EC50 in data set [1] is below 10 µg/mL. The compound further had a pEC50 at C. elegans Slo-1a above 8.50.

On to `C=C(C)c1c(C(=O)N[C@H]2CCOc3ccccc32)cnc2c(-c3cc(Cl)cc(Cl)c3)cccc12` [Example 317, 8-(3,5-dichlorophenyl)-N-[(4S)-3,4-dihydro-2H-chromen-4-yl]-4-(prop-1-en-2-yl)quinoline-3-carboxamide], for which the EC50 in data set [1] was below 0.1 µg/mL. In addition, on C. elegans Slo-1a, the pEC50 was 7.50 to 8.50.

On to `CCOC(=O)[C@@H]1CCCN1c1c(C(=O)N[C@H]2CCOc3ccccc32)cnc2c(-c3cc(Cl)cc(Cl)c3)cccc12` [Example 320], for which the EC50 in data set [1] was below 1 µg/mL. The same compound had a pEC50 on C. elegans Slo-1a of 7.50 to 8.50.

For `O=C(N[C@H]1CCc2ccccc21)c1cnc2c(-c3cc(Cl)cc(Cl)c3)cccc2c1OCC1CCCC1` [Example 348], the EC50 in data set [1] was below 1 µg/mL. At C. elegans Slo-1a, this compound gave a pEC50 of 7.50 to 8.50.

With `CCOC(=O)C(C#N)c1c(C(=O)N[C@H]2CCOc3ccccc32)cnc2c(-c3cc(Cl)cc(Cl)c3)cccc12` (stereo partly drawn) [Example 354, ethyl cyano{8-(3,5-dichlorophenyl)-3-[(4S)-3,4-dihydro-2H-chromen-4-ylcarbamoyl]quinolin-4-yl}acetate], in data set [1], the EC50 is below 1 µg/mL. Further, the negative-log EC50 (pEC50) at C. elegans Slo-1a was 6.50 to 7.50.

For the compound `O=C(N[C@H]1CCOc2ccccc21)c1cnc2c(-c3cc(Cl)cc(Cl)c3)cccc2c1Sc1ccccn1` [Example 363], in data set [2], the inhibition at 10 µg/mL is above 80%. Also, the EC50 in data set [1] was below 10 µg/mL. For the same compound, the negative logarithm of the EC50 (pEC50) on C. elegans Slo-1a was 5.30 to 6.50.

Regarding `COC(=O)CNc1c(C(=O)N[C@H]2CCOc3ccccc32)cnc2c(-c3cc(Cl)cc(Cl)c3)cccc12` [Example 375], the inhibition at 1 µg/mL in data set [2] was above 80%. Besides, the EC50 in data set [1] is below 0.1 µg/mL. Also, the pEC50 at C. elegans Slo-1a is 7.50 to 8.50.

On to `CN(C)c1c(C(=O)N[C@H]2CCOc3ccccc32)cnc2c(-c3ccc(C#N)s3)cccc12` [Example 389], for which the EC50 in data set [1] was below 10 µg/mL. Further, at C. elegans Slo-1a, the pEC50 was 6.50 to 7.50.

`O=C(N[C@H]1CCOc2ccccc21)c1cnc2c(-c3cc(Cl)cc(Cl)c3)cccc2c1N1CCC(F)(F)CC1` [Example 398]: the EC50 in data set [1] was below 10 µg/mL. Moreover, the pEC50 on C. elegans Slo-1a was above 8.50.

Turning to `Cc1ncc(-c2cccc3c(N(C)C)c(C(=O)N[C@H]4CCOc5ccccc54)cnc23)s1` [Example 456], in data set [1], the EC50 is below 1 µg/mL. The same compound gave a pEC50 on C. elegans Slo-1a of 6.50 to 7.50.

Regarding `Cc1nc2c(-c3cccc(Cl)c3Cl)cccc2c(N(C)C)c1C(=O)N[C@H]1CCOc2ccccc21` [Example 481, 8-(2,3-dichlorophenyl)-N-[(4S)-3,4-dihydro-2H-chromen-4-yl]-4-(dimethylamino)-2-methylquinoline-3-carboxamide], the EC50 in data set [1] was below 10 µg/mL. For the same compound, the pEC50 on C. elegans Slo-1a was 7.50 to 8.50.

For `CN(C)c1c(C(=O)NC2CCOc3ccc(Br)cc32)cnc2c(-c3cc(Cl)cc(Cl)c3)cccc12` (stereo not drawn) [Example 580], the EC50 in data set [1] was below 1 µg/mL. This compound had a pEC50 on C. elegans Slo-1a of 5.30 to 6.50.

For `CN(C)c1c(C(=O)NC2COCc3ccccc32)cnc2c(-c3cc(Cl)cc(Cl)c3)cccc12` (stereo not drawn) [Example 581], the inhibition at 1 µg/mL in data set [2] is above 80%. For the same compound, in data set [1], the EC50 is below 0.1 µg/mL. At C. elegans Slo-1a, this compound gave a pEC50 of 6.50 to 7.50.

For the compound `CN(C)C(=O)c1c(C(=O)N[C@H]2CCOc3ccccc32)cnc2c(-c3cc(Cl)cc(Cl)c3)cccc12` [Example 585], the inhibition at 1 µg/mL in data set [2] was above 80%. Also, the EC50 in data set [1] is below 1 µg/mL. This compound also showed a pEC50 on C. elegans Slo-1a of 7.50 to 8.50.

For the compound `O=C(N[C@H]1CCOc2ccccc21)c1cnc2c(-c3cc(Cl)cc(Cl)c3)cccc2c1CO` [Example 592], the pEC50 at C. elegans Slo-1a is 5.30 to 6.50.

As for `O=C(N[C@H]1CCOc2ccccc21)c1cnc2c(-c3cc(Cl)cc(Cl)c3)cccc2c1CCO` [Example 593], at C. elegans Slo-1a, the pEC50 was 7.50 to 8.50.

For `O=C(N[C@H]1CCOc2ccccc21)c1cnc2c(-c3cc(Cl)cc(Cl)c3)c(O)ccc2c1N1CCOCC1` [Example 616], in data set [1], the EC50 is below 0.1 µg/mL. At C. elegans Slo-1a, this compound gave a pEC50 above 8.50.

`O=C(N[C@H]1CCOc2ccccc21)c1cnc2c(-c3cc(Cl)ccc3F)cc(O)cc2c1N1CCOCC1` [Example 626]: the inhibition at 1 µg/mL in data set [2] was above 80%. The EC50 in data set [1] was below 0.1 µg/mL. The pEC50 on C. elegans Slo-1a was 7.50 to 8.50.

Consider `CN(C)c1c(C(=O)NC2CCOc3c(Br)cccc32)cnc2c(-c3cc(Cl)cc(Cl)c3)cccc12` (stereo not drawn) [Example 634], for which the inhibition at 1 µg/mL in data set [2] was above 80%. The EC50 in data set [1] was below 0.1 µg/mL. At C. elegans Slo-1a, the pEC50 was 6.50 to 7.50.

Turning to `O=C(N[C@H]1CCOc2ccccc21)c1cnc2c(-c3cccc(Cl)c3Cl)cccc2c1C1=CCOCC1` [Example 653], in data set [2], the inhibition at 1 µg/mL is above 80%. Further, the EC50 in data set [1] was below 0.1 µg/mL. The compound further gave a negative-log EC50 (pEC50) at C. elegans Slo-1a above 8.50.

`Cn1cc(-c2c(C(=O)N[C@H]3CCOc4ccccc43)cnc3c(-c4cc(Cl)cc(Cl)c4)cccc23)c(=O)n(C)c1=O` [Example 654]: the EC50 in data set [1] was below 1 µg/mL. Further, on C. elegans Slo-1a, the pEC50 was 6.50 to 7.50.

In the case of `CN(C)c1c(C(=O)NC2COCc3c(F)cccc32)cnc2c(-c3cc(Cl)cc(Cl)c3)cccc12` (stereo not drawn) [Example 665], the pEC50 at C. elegans Slo-1a was 6.50 to 7.50.
